From US20250388607A1, “A BROMOTAG-BASED TOOLKIT FOR RAPID INDUCTION OF CHEMICALLY INDUCED PROXIMITY” (THE BOARD OF TRUSTEES OF THE LELAND STANFORD JUNIOR …, priority 2024, published 2025)
“Also recorded” adds a separate entry of the source.

What was measured:
FKBP12F36V and BromoTag = target: T1, FKBP12F36V and BromoTag (Homo sapiens, UniProt O60885+P62942, F37V/L387A); test: NanoBiT assay, FKBP/BromoTag heterodimerization, tags expressed alone; assay type: cell-based; settings: all LgBiT and SmBiT tag orientations; FIGS. 1A-1D; HEK293T
T1 construct: BRD4 BD2 L387A mutant tag; LgBiT or SmBiT (NanoBiT subunit); expressed in transfected cells; host or cells: HEK293T
Excerpt: (§1) FKBP/BromoTag NanoBiT-tagged construct cloning. FKBP12F36V and BromoTag sequences were cloned using Gibson assembly into pBiT1.1-C [TK/LgBiT], pBiT2.1-C [TK/SmBiT], pBiT1.1-N [TK/LgBiT], and pBiT2.1-N [TK/SmBiT] vectors included in the NanoBiT® PPI MCS Starter System kit (Promega #N2014). […] pBiT1.1 and pBiT2.1 vectors were linearized at EcoRI and NheI cut sites, inserts were amplified with PCR, and constructs were ligated using NEBuilder® HiFi DNA Assembly Master Mix.
NanoBiT assay. 15k HEK293T cells per well were plated in 92 ul DMEM+10% FBS in opaque 96-well plates and allowed to adhere overnight, approximately 18-24 hours. HEK293T cells were subsequently transfected with pBiT1.1 (LgBiT-tagged) or pBiT2.1 (SmBiT-tagged) FKBP12F36V and/or BromoTag vectors, using TransIT-LT1 transfection reagent (Mirus #MIR2300) and Opti-MEM (Gibco #31985062). After 24 hours, 25 ul Nano-Glo® Live Cell Reagent was added to each well to measure dimerization signal. Using a PHERAstar FSX, baseline luminescence was measured for five or six cycles (approximately eight to ten minutes). Test dimerizer compounds freshly diluted in DMEM+10% FBS were then manually spiked in and induced luminescence was measured continuously for up to two hours. […]

BromoTag = target: T2, BromoTag (Homo sapiens, UniProt O60885, L387A); test: NanoBiT assay, BromoTag homodimerization, tag expressed alone; assay type: cell-based; settings: all orientations of LgBiT and SmBiT tags; FIGS. 4A-4D and 5; high background
T2 construct: BRD4 BD2 L387A mutant tag; expressed in transfected cells; host or cells: HEK293T
Excerpt: as §1
NanoBiT assay. 15k HEK293T cells per well were plated in 92 ul DMEM+10% FBS in opaque 96-well plates and allowed to adhere overnight, approximately 18-24 hours. HEK293T cells were subsequently transfected with pBiT1.1 (LgBiT-tagged) or pBiT2.1 (SmBiT-tagged) FKBP12F36V and/or BromoTag vectors, using TransIT-LT1 transfection reagent (Mirus #MIR2300) and Opti-MEM (Gibco #31985062). After 24 hours, 25 ul Nano-Glo® Live Cell Reagent was added to each well to measure dimerization signal. Using a PHERAstar FSX, baseline luminescence was measured for five or six cycles (approximately eight to ten minutes). Test dimerizer compounds freshly diluted in DMEM+10% FBS were then manually spiked in and induced luminescence was measured continuously for up to two hours. All summary figures were generated with GraphPad Prism. Data for the NanoBit assay is provided in FIGS. 1A-1D, 2A-2B, 3A-3B, 4A-4D, 5, 6A-6B, 7, and 12A-12C.

T1 sequence (P62942 whole entry F37V, other chains not shown): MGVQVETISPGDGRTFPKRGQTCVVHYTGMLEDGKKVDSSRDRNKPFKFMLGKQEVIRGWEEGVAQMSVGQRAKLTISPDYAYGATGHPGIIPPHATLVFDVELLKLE

SMILES	max dimerization signal compared with FKBP12WT/FRB-rapamycin (sirolimus) control (FKBP12F36V and BromoTag)	max dimerization signal compared with DMSO (BromoTag)	max dimerization signal compared with FKBP12WT/FRB-rapamycin control (BromoTag)
CC[C@H](C(=O)N1CCCC[C@H]1C(=O)O[C@H](CCc1ccc(OC)c(OC)c1)c1cccc(OCC(=O)NCCCCCCNC(=O)[C@H](CC)[C@@H]2N=C(c3ccc(Cl)cc3)c3c(sc(C)c3C)-n3c(C)nnc32)c1)c1cc(OC)c(OC)c(OC)c1 [MMH-04-74, (R)-1-(3-(2-((6-((R)-2-((S)-4-(4-chlorophenyl)-2,3,9-trimethyl-6H-thieno[3,2-f][1,2,4]triazolo[4,3-a][1,4]diazepin-6-yl)butanamido)hexyl)amino)-2-oxoethoxy)phenyl)-3-(3,4-dimethoxyphenyl)propyl (S)-1-((S)-2-(3,4,5-trimethoxyphenyl)butanoyl)piperidine-2-carboxylate]	dramatically higher max dimerization signal		
CC[C@@H](C(=O)NCCOCCOCCNC(=O)[C@H](CC)[C@@H]1N=C(c2ccc(Cl)cc2)c2c(sc(C)c2C)-n2c(C)nnc21)[C@@H]1N=C(c2ccc(Cl)cc2)c2c(sc(C)c2C)-n2c(C)nnc21 [MMH-05-01-03, (2R,2′R)-N,N′-((ethane-1,2-diylbis(oxy))bis(ethane-2,1-diyl))bis(2-((S)-4-(4-chlorophenyl)-2,3,9-trimethyl-6H-thieno[3,2-f][1,2,4]triazolo[4,3-a][1,4]diazepin-6-yl)butanamide)]		improved max dimerization signal over DMSO; also recorded: in most NanoBiT tag orientations have improved signal over DMSO	significantly higher signal; also recorded: outperformed existing FKBP12WT/FRB-rapamycin heterodimerization system
CC[C@@H](C(=O)NCCCCCCNC(=O)[C@H](CC)[C@@H]1N=C(c2ccc(Cl)cc2)c2c(sc(C)c2C)-n2c(C)nnc21)[C@@H]1N=C(c2ccc(Cl)cc2)c2c(sc(C)c2C)-n2c(C)nnc21 [MMH-05-01-02, (2R,2′R)-N,N′-(hexane-1,6-diyl)bis(2-((S)-4-(4-chlorophenyl)-2,3,9-trimethyl-6H-thieno[3,2-f][1,2,4]triazolo[4,3-a][1,4]diazepin-6-yl)butanamide)]		improved max dimerization signal over DMSO; also recorded: in most NanoBiT tag orientations have improved signal over DMSO	significantly higher signal; also recorded: outperformed existing FKBP12WT/FRB-rapamycin heterodimerization system
